This is an account of results in BindingDB's records for doi:10.1016/s0960-894x(98)00721-5 (Tumor Biology Center, 1999).

Molecules are shown by their SMILES.

For the assay, the target named is Phospholipase A2 (Naja mossambica mossambica). Put plainly: Phospholipase A2 inhibition using mixed micelles pH-stat assay and 14 kDa-Phospholipase A2 from Naja mossambica mossambica.

Take `CCCCCCCC(=O)OCCCCCCC[C@H](COP(=O)(O)OC)NC(C)=O` [Octanoic acid (R)-8-acetylamino-9-(hydroxy-methoxy-phosphoryloxy)-nonyl ester]: inhibition was half-maximal at 3.1 µM (IC50).

`CCCCCCCCCCCCCCCC[C@H](COP(=O)(O)OC)NC(C)=O` [Phosphoric acid (R)-2-acetylamino-octadecyl ester methyl ester]: inhibition was half-maximal at 3.4 µM (IC50).

`COP(=O)(O)OC[C@@H](CCCCCCCO)NC(C)=O` [Phosphoric acid (R)-2-acetylamino-9-hydroxy-nonyl ester methyl ester]: the midpoint of inhibition, the IC50, lay at 350 µM.

Turning to `CCCCCCCCCCCCCCCCOCCOCCCCCCC[C@H](COP(=O)(O)OC)NC(C)=O` [Phosphoric acid (R)-2-acetylamino-9-(2-hexadecyloxy-ethoxy)-nonyl ester methyl ester], half-maximal inhibition (IC50) was put at 1.7 µM.

Regarding `CCCCCCCCCCCCCCCC(=O)OCCCCCCC[C@H](COP(=O)(O)OC)NC(C)=O` [Hexadecanoic acid (R)-8-acetylamino-9-(hydroxy-methoxy-phosphoryloxy)-nonyl ester], the IC50 (in general, the point on the concentration scale where inhibition reaches its midpoint) amounted to 5 µM.

As for `COP(=O)(O)OC[C@@H](CCCCCCCOC(=O)CCC(=O)OC1CCC2(C)C(=CCC3C2CCC2(C)C(C(C)CCCC(C)C)CCC32)C1)NC(C)=O` (stereo partly drawn) [Succinic acid (R)-8-acetylamino-9-(hydroxy-methoxy-phosphoryloxy)-nonyl ester 17-(1,5-dimethyl-hexyl)-10,13-dimethyl-2,3,4,7,8,9,10,11,12,13,14,15,16,17-tetradecahydro-1H-cyclopenta[a]phenanthren-3-yl ester], half-maximal inhibition (IC50) was put at 2.3 µM.
